What was measured:
[1] = Hygroscicity by Dynamic Vapor Sorption (DVS) at 25° C.; assay type: physicochemical
Experimental: Hygroscopicity was investigated by DVS at 25° C., using the following method: […]

[2] = Bulk stability, accelerated storage for one week (HPLC, XRPD); assay type: physicochemical
Experimental: Bulk stability: Accelerated stability experiments were conducted at 25° C./92% RH and 40° C./75% RH in an open container, 60° C. in a tight container for one week.
Samples were characterized by XRPD and HPLC and inspected for color change.
Accelerated stability experiments were conducted at 25° C./92% RH in an open container, at 40° C./75% RH in an open container, and at 60° C. in a tight container for one week.

[3] = Approximate solubility in solvents at 25° C. and 50° C. by visual observation; assay type: physicochemical
Experimental: The maximum volume of each solvent added was 1 mL. Approximate solubility was determined by visual observation.
Maximum volume of each solvent added was 1 mL. Approximate solubility was determined by visual observation.

[4] = Solubility in buffers, water and simulated vaginal fluid at 37° C.; assay type: physicochemical
Experimental: About 4 mg of Compound I Pattern 1 was added into 2 mL of buffer solution.
(§1) Solubility was tested in five media, pH 3.0 citrate buffer, pH 4.5 acetate buffer, pH 6.8 phosphate buffer, water, simulated vaginal fluid (pH 4.2) at 37° C. for 0.5 h and 2 h.
The salt amount used is equivalent to 10 mg anhydrous free base. […] The obtained clear solutions were analyzed by pH meter for pH, and solubility was determined by observation.
as §1

[5] = Behavior under compression, grinding simulation and granulation simulation (XRPD); assay type: physicochemical
Experimental: About 10 mg of Compound I monofumarate Pattern 1 (Example 7) was compressed for 5 minutes at 10 MPa with a hydraulic press. XRPD characterization was performed to investigate the polymorphic behavior under compression.
About 10 mg of Compound I monofumarate Pattern 1 (Example 7) was ground manually with a mortar and pestle for 5 min. Form transformation and degree of crystallinity was evaluated by XRPD.
Water or ethanol was added drop wise to about 10 mg of Compound I monofumarate Pattern 1 (Example 7) until solids were wetted sufficiently. The samples were ground manually with a mortar and pestle for 3 minutes. Samples are dried under ambient condition for 10 min. Form transformation and degree of crystallinity were evaluated by XRPD.

[6] = Ex vivo permeation and penetration across porcine vaginal tissue (Franz diffusion cells, IVPT); assay type: in vitro ADME; settings: 0.1% dose; porcine and human tissues (FIG. 116)
Source text: FIG. 116 is an in vitro tissue permeation test in vaginal tissue comparing Compound II to ABI-1968. […] Bars B and C show the tissue penetration of a 0.1% Compound II gel in […]. […] This may be a contributing factor to the performance of ABI-1968 in clinical studies. […] This is described in Example 41.
Freshly harvested porcine vaginal tissue was procured from local slaughterhouse in an ice box. The vaginal tissue was cut open to expose the mucosal surface and tissue was cleaned by gentle flow of PBS pH 7.4. The porcine vaginal tissue was cut into circular portions (approximately 2 cm^2) with help of a […] punch.
The circular portion of tissue was sandwiched between two chambers of a Franz diffusion cell with an active diffusion area of 1 cm^2, and the mucosal layer was exposed to the donor chambers. The resistance across porcine vaginal tissue was measured using a wave form generator to ensure the integrity of the tissue segment used for the permeation study. Porcine vaginal tissue with resistance of ≥3 KΩ.cm^2 was used for study. The receiver chamber was filled with 8 ml of 5% solutol PBS 7.4 pH, which was stirred at 600 rpm with a 3 mm magnetic stir bar and the temperature was maintained at 37° C. with a circulating water bath.
The ˜200 mg of gel was filled into tared 1 mL syringe and gel was dispensed to donor chamber. The gel was spread on to mucosal surface with pre weighed applicator. After loading and spreading of the gel onto surface of mucosal surface, the weight of 1 mL syringe and applicator was noted to determine the exact amount of gel loaded into donor chamber.
Time course (2 h, 4 h and 8 h) porcine vaginal permeation studies were performed. After loading gel, 500 μL samples were withdrawn from the receiver compartment at different time intervals and each time an equal volume of fresh receiver media was used to replace withdrawn samples. The sample withdrawn at each time interval were stored immediately in −20° C. until analysis. After 2, 4 and 8 h, the formulation was removed from the donor chamber with help of syringe and cleaned with cotton swab. The tissue was removed and washed gently with wash solution (50% methanol in water) 5 times and alternatively cleaning with cotton swab.
An 8 mm punch of active diffusion area of washed porcine vaginal tissue was removed, weighed and transferred into a tube. This tube was immediately placed into dry ice for ˜15 min. After specified time, tissue was removed and placed in precooled dish. The tissue was minced into smaller pieces on a dish with a precooled surgical blade. The minced tissue was transferred to sample tubes and dish was rinsed with 1 ml of 5% solutol in PBS 7.4 pH and transferred to same tissue sample tube. These tubes were stored in −70° C. until analysis.
The samples stored at −20° C. was removed and thawed at room temperature for 30 min. The drug from receptor fluid was centrifuged at 13000 rpm for 5 min and to 200 μL of supernatant equal volume of extraction solvent was added. These samples were centrifuged at 13000 rpm for 5 min and supernatant was transferred into vials for analysis.
The minced tissue samples stored at −70° C. were removed and thawed at room temperature for ˜90 min. The samples were kept for shaking at room temperature for 4 h in BioShaker. After 4 h, samples were centrifuged at 13000 rpm for 5 min. To 100 μL of supernatant, 400 μL of extraction solvent was added and vortexed for 2 min. […]

[7] = 25° C., 92% RH, open container, one week
[8] = 40° C., 75% RH, open container, one week
[9] = 60° C., tight container, one week
[10] = Simulated vaginal fluid (pH adjusted with 0.2N NaOH)

CCOC(=O)C(C)NP(=O)(COCCn1cnc2c(OC)nc(N)nc21)OCc1ccccc1.O=C(O)C=CC(=O)O (mixture of isomers) [Compound I Monofumarate Pattern 1]
D. (%) Cycle 1 (Desorption) ([1]; 0% RH, 25° C.): 0.49% | D. (%) Cycle 2 (Desorption) ([1]; 0% RH, 25° C.): 0.09% | S. (%) Cycle 1 (Sorption) ([1]; 0% RH, 25° C.): 0.49% | S. (%) Cycle 2 (Sorption) ([1]; 0% RH, 25° C.): 0.09% | D. (%) Cycle 1 (Desorption) ([1]; 10% RH, 25° C.): 0.62% | D. (%) Cycle 2 (Desorption) ([1]; 10% RH, 25° C.): 0.15% | S. (%) Cycle 1 (Sorption) ([1]; 10% RH, 25° C.): 0.56% | S. (%) Cycle 2 (Sorption) ([1]; 10% RH, 25° C.): 0.18% | D. (%) Cycle 1 (Desorption) ([1]; 20% RH, 25° C.): 0.71% | D. (%) Cycle 2 (Desorption) ([1]; 20% RH, 25° C.): 0.35% | S. (%) Cycle 1 (Sorption) ([1]; 20% RH, 25° C.): 0.66% | S. (%) Cycle 2 (Sorption) ([1]; 20% RH, 25° C.): 0.27% | D. (%) Cycle 1 (Desorption) ([1]; 30% RH, 25° C.): 0.81% | D. (%) Cycle 2 (Desorption) ([1]; 30% RH, 25° C.): 0.47% | S. (%) Cycle 1 (Sorption) ([1]; 30% RH, 25° C.): 0.76% | S. (%) Cycle 2 (Sorption) ([1]; 30% RH, 25° C.): 0.37% | D. (%) Cycle 1 (Desorption) ([1]; 40% RH, 25° C.): 0.93% | D. (%) Cycle 2 (Desorption) ([1]; 40% RH, 25° C.): 0.56% | S. (%) Cycle 1 (Sorption) ([1]; 40% RH, 25° C.): 0.86% | S. (%) Cycle 2 (Sorption) ([1]; 40% RH, 25° C.): 0.47% | D. (%) Cycle 2 (Desorption) ([1]; 50% RH, 25° C.): 0.67% | S. (%) Cycle 1 (Sorption) ([1]; 50% RH, 25° C.): 0.71% | D. (%) Cycle 2 (Desorption) ([1]; 60% RH, 25° C.): 0.85% | S. (%) Cycle 1 (Sorption) ([1]; 60% RH, 25° C.): 0.85% | D. (%) Cycle 2 (Desorption) ([1]; 70% RH, 25° C.): 1.04% | S. (%) Cycle 1 (Sorption) ([1]; 70% RH, 25° C.): 1.02% | D. (%) Cycle 2 (Desorption) ([1]; 80% RH, 25° C.): 1.30% | S. (%) Cycle 1 (Sorption) ([1]; 80% RH, 25° C.): 1.27% | D. (%) Cycle 2 (Desorption) ([1]; 90% RH, 25° C.): 1.84% | S. (%) Cycle 1 (Sorption) ([1]; 90% RH, 25° C.): 1.78% | D. (%) Cycle 2 (Desorption) ([1]; 95% RH, 25° C.): 2.89% | S. (%) Cycle 1 (Sorption) ([1]; 95% RH, 25° C.): 2.89% | XRPD after DVS test ([1]; cycle 40-0-95-0-40% RH, 25° C.): No form change, | Water uptake ([1]; up to 95% RH, DVS 25° C.): about 2.9% | XRPD ([2]; 25° C., 84% RH, open container, 2 days): No change | HPLC (chemical purity) [2, 7]: 98.2% | XRPD [2, 7]: No change | HPLC (chemical purity) [2, 8]: 95.6% | XRPD [2, 8]: No change | HPLC (chemical purity) [2, 9]: 95.5% | XRPD [2, 9]: No change | HPLC (chemical purity) ([2]; Initial): 98.6% | Solubility ([3]; Acetone, 25° C.): 50000 to 100000 µg/mL | Solubility ([3]; Acetone, 50° C.): 125000 to 167000 µg/mL | Solubility ([3]; Acetonitrile (ACN), 25° C.): 20000 to 25000 µg/mL | Solubility ([3]; Acetonitrile (ACN), 50° C.): 20000 to 33000 µg/mL | Solubility ([3]; Dichloromethane (DCM), 25° C.): <2000 µg/mL | Solubility ([3]; Dichloromethane (DCM), 50° C.): <10000 µg/mL | Solubility ([3]; Ethanol (EtOH), 25° C.): >100000 µg/mL | Solubility ([3]; Ethanol (EtOH), 50° C.): 250000 to 500000 µg/mL | Solubility ([3]; Ethyl acetate (EA), 25° C.): <2000 µg/mL | Solubility ([3]; Ethyl acetate (EA), 50° C.): <10000 µg/mL | Solubility ([3]; Heptanes, 25° C.): <2000 µg/mL | Solubility ([3]; Heptanes, 50° C.): <10000 µg/mL | Solubility ([3]; Isopropanol (IPA), 25° C.): 50000 to 100000 µg/mL | Solubility ([3]; Isopropanol (IPA), 50° C.): 71000 to 84000 µg/mL | Solubility ([3]; Isopropyl acetate (IPAc), 25° C.): <2000 µg/mL | Solubility ([3]; Isopropyl acetate (IPAc), 50° C.): <10000 µg/mL | Solubility ([3]; Methanol (MeOH), 25° C.): >100000 µg/mL | Solubility ([3]; Methanol (MeOH), 50° C.): >500000 µg/mL | Solubility ([3]; Methyl ethyl ketone (MEK), 25° C.): 20000 to 25000 µg/mL | Solubility ([3]; Methyl ethyl ketone (MEK), 50° C.): 22000 to 25000 µg/mL | Solubility ([3]; Methyl t-butyl ether (MTBE), 25° C.): <2000 µg/mL | Solubility ([3]; Methyl t-butyl ether (MTBE), 50° C.): <10000 µg/mL | Solubility ([3]; Tetrahydrofuran (THF), 25° C.): >100000 µg/mL | Solubility ([3]; Tetrahydrofuran (THF), 50° C.): 250000 to 500000 µg/mL | Solubility ([3]; Toluene, 25° C.): <2000 µg/mL | Solubility ([3]; Toluene, 50° C.): <10000 µg/mL | Solubility ([3]; Water, 25° C.): 14000 to 17000 µg/mL | Solubility ([3]; Water, 50° C.): 22000 to 25000 µg/mL | Solubility 0.5 hrs [4, 10]: >2000 µg/mL | Solubility 2 hrs [4, 10]: >2000 µg/mL | pH at 2 hrs [4, 10]: (5.39) | Solubility 0.5 hrs ([4]; Water): >2000 µg/mL | Solubility 2 hrs ([4]; Water): >2000 µg/mL | pH at 2 hrs ([4]; Water): (3.11) | Solubility 0.5 hrs ([4]; pH 3.0 100 mM citrate buffer): >2000 µg/mL | Solubility 2 hrs ([4]; pH 3.0 100 mM citrate buffer): >2000 µg/mL | pH at 2 hrs ([4]; pH 3.0 100 mM citrate buffer): (3.05) | Solubility 0.5 hrs ([4]; pH 4.5 50 mM acetate buffer): >2000 µg/mL | Solubility 2 hrs ([4]; pH 4.5 50 mM acetate buffer): >2000 µg/mL | pH at 2 hrs ([4]; pH 4.5 50 mM acetate buffer): (4.36) | Solubility 0.5 hrs ([4]; pH 6.8 50 mM phosphate buffer): >2000 µg/mL | Solubility 2 hrs ([4]; pH 6.8 50 mM phosphate buffer): >2000 µg/mL | pH at 2 hrs ([4]; pH 6.8 50 mM phosphate buffer): (6.49) | Polymorphic behavior under compression (XRPD) ([5]; compressed for 5 minutes at 10 MPa): no form change was observed | Form transformation and crystallinity after grinding (XRPD) ([5]; ground manually with mortar and pestle for 5 min): no form change was observed; crystallinity slightly decreased | Form transformation after granulation simulation (XRPD) ([5]; wetted with water or ethanol, ground 3 minutes, dried 10 min): neither in ethanol, nor in water form change was observed

CCOC(=O)[C@H](C)NP(=O)(COCCn1cnc2c(OC)nc(N)nc21)OCc1ccccc1.O=C(O)/C=C/C(=O)O (mixture of isomers) [Compound I monofumarate, (±)-(2S)-ethyl-2-((((2-(2-amino-6-methoxy-9H-purin-9-yl)-ethoxy)-methyl)-(benzyloxy)-phosphoryl)-amino)-propionate monofumarate]
Concentration in vaginal tissue [6]: 40 to 85 ng/mL
